Read-outs that look alike come from different tables or passages of the source.
Assays:
[1] = test system: H2O2 induced pAkt in D-U937 cells; assay: PI3Kδ Cell Based Assay (H2O2 induced pAkt); details: Homo sapiens, dU937
Procedure: As a means of assessing PI3K 6 activation in response to stimuli, the phosphorylation status of the protein, Akt, a downstream product of PI3K6, signaling was determined. Human monocytic cells (U937 cells), were differentiated to macrophage-type cells by incubation with phorbol myristate acetate (PMA; 100 ng/mL) for 48 to 72 hr. […] The cells were washed with buffer (PBS containing 0.1% Triton X-100) and were incubated with blocking solution (1% BSA in PBS) for 1 hr and were then re-washed with buffer and incubated overnight with either anti-pAkt antibody or anti-pan-Akt antibody (both from Cell Signaling Technology). […] This reaction was stopped by addition of 100 μL of 1N H2SO4 solution. […] The ratio of pAkt signal to total Akt signal was used to quantitate the extent of PI3K δ activation. […] The IC50 values were calculated from the concentration-response curves generated by the serial dilutions of the test compounds (Table 3 and Table 4).

[2] = target: recombinant PI3 kinase δ (Homo sapiens (Human), UniProt O00329); assay: Enzyme Inhibition Assay (HTRF PI3K enzyme assay, TR-FRET); assay type: biochemical
From the text: (§1) PI3 kinases catalyse the phosphorylation of phosphatidylinositol 4,5-biphosphate (PIP2) to phosphatidylinositol 3,4,5-triphosphate (PIP3) in the presence of ATP and Mg^2+ ions. The PIP3 product can be detected by displacement of biotin-PIP3 from energy transfer complexes consisting of europium labelled anti-GST monoclonal antibody, a GST-tagged Pleckstrin homology (PH) domain, biotinylated PIP3 and streptavidin-allophycocyanin (APC) by the time-resolved fluorescence resonance energy transfer (TR-FRET) (HTRF® PI3K enzyme assay, Millipore). […] The PIP3 product formed by PI3K activity displaces biotin-PIP3 from the complex and results in a loss of energy transfer (decreasing signal).
(§2) The compound to be tested was added, at the desired final concentrations, to a mixture of PIP2 substrate and recombinant PI3 kinase α, δ or γ enzymes (Millipore), and the mixture incubated for 2 hr at RT. […] A stopping solution containing biotinylated PIP3 and the detection mix containing the GST tagged GRP1 pleckstrin homology (PH) domain and fluorophores were then added and the mixture was incubated at RT for 15-18 hr, prior to detection in a fluorescence microplate reader (Varioskan® Flash, ThermoFisher Scientific).

[3] = target: recombinant PI3 kinase γ (Homo sapiens (Human), UniProt P48736); assay: as above; assay type: biochemical
From the text: as §1, §2

[4] = target: recombinant PI3 kinase α (Homo sapiens (Human), UniProt P42336); assay: as above; assay type: biochemical
From the text: as §1, §2

[5] = test system: PMA-differentiated U937 cells; assay: MTT Assay (cell viability); assay type: cell-based, Human; details: percentage loss of cell viability; for Cell Viability MTT Assay in D-U937 cells at 4 hr: 4 hr in 5% FCS; for Cell Viability MTT Assay in D-U937 cells at 24 hr: 24 hr in 10% FCS
Procedure: PMA-differentiated U937 cells were pre-incubated with compound for 4 hr in 5% FCS or 10% FCS for 24 hr. The supernatant was replaced with 200 μL of new media and 10 μL of MTT stock solution (5 mg/ml) added to each well. After 1 hr incubation, the media were removed, 200 μL of DMSO added to each well and the plates were shaken lightly for 1 hr prior to reading the absorbance at 550 nm. The percentage loss of cell viability was calculated for each well relative to vehicle (0.5% DMSO)-treatment (Table 3).

[6] = activity range, D-U937 cells, read-out: Cellular Activity IC50 values (H2O2 induced pAkt D-U937 Cells)
[7] = activity range, read-out: PI3 Kinase Inhibition IC50 values at stated Isozyme δ
[8] = activity range, read-out: PI3 Kinase Inhibition IC50 values at stated Isozyme γ
[9] = activity range, read-out: PI3 Kinase Inhibition IC50 values at stated Isozyme α

recombinant PI3 kinase α, sequence (P42336 whole entry): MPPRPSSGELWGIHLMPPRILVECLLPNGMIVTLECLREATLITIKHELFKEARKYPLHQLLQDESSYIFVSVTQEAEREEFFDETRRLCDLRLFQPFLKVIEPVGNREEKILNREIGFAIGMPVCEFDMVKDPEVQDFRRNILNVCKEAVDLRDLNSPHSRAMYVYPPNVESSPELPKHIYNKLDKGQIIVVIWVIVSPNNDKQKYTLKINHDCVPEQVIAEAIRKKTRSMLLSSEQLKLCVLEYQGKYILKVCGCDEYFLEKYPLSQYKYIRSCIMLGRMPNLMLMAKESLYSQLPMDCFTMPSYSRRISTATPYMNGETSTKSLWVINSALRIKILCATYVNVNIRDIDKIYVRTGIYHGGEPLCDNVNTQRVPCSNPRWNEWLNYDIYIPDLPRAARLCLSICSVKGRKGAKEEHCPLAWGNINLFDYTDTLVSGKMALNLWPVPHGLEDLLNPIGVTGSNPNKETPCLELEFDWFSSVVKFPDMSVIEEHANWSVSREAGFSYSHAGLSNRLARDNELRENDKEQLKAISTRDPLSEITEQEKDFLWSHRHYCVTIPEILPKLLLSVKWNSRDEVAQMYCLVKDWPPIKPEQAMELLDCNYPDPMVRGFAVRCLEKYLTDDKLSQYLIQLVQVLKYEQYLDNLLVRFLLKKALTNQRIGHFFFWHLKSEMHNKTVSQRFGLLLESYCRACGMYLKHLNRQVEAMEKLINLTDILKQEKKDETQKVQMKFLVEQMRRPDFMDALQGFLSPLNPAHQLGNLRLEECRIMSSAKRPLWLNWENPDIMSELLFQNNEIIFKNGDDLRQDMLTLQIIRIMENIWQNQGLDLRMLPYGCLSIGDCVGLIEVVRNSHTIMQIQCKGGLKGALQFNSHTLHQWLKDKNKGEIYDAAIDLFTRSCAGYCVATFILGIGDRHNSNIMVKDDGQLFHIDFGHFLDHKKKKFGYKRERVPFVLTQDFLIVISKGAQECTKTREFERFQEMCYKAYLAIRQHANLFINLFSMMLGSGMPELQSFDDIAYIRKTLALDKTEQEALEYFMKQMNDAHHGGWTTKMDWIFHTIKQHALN
recombinant PI3 kinase α, sequence (P27986 whole entry partner): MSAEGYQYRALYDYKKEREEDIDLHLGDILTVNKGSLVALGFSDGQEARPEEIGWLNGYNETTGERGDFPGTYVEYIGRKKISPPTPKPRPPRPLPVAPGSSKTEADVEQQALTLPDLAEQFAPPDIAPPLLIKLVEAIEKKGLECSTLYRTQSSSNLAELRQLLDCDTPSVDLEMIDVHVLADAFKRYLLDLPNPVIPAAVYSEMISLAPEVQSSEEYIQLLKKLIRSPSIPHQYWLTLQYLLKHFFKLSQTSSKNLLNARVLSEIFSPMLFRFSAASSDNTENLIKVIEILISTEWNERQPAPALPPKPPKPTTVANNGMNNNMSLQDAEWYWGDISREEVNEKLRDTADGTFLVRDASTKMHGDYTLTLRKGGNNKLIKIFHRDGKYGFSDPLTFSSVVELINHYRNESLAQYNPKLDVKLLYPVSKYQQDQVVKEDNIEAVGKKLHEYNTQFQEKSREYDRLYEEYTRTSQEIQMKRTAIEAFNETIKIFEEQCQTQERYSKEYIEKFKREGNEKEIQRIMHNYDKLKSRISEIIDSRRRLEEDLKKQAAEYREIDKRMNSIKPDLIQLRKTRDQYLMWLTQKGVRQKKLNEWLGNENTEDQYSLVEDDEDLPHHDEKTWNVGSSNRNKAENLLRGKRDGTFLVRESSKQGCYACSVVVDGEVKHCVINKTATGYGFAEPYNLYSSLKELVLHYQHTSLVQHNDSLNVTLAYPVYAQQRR
recombinant PI3 kinase δ, sequence (O00329 whole entry): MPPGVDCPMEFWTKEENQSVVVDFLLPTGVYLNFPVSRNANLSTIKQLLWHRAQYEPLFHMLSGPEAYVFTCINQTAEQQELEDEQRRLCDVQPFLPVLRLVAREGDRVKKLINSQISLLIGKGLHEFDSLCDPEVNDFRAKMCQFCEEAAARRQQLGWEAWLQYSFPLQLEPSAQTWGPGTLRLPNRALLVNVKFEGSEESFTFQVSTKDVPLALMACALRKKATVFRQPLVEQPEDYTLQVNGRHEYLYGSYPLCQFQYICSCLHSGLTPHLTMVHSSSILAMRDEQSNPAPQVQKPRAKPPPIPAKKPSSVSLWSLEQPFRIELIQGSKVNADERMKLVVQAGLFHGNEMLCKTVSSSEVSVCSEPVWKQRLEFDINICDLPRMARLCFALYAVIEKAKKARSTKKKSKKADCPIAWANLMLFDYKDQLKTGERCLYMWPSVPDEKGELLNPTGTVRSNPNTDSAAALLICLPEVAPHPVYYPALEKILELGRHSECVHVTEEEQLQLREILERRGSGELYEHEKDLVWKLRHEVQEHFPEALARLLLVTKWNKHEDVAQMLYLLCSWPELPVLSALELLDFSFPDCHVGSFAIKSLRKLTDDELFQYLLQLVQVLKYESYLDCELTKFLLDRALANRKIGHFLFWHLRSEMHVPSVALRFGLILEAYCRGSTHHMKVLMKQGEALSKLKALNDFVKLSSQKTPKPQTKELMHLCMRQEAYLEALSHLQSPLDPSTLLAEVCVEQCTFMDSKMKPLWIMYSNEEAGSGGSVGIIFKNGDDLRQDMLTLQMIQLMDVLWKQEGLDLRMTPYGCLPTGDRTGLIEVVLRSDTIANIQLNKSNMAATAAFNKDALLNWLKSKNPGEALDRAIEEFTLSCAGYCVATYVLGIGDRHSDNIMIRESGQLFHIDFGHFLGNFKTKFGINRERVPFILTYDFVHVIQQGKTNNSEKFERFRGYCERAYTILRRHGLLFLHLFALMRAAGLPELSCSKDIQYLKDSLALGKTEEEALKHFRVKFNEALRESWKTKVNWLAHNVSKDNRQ
recombinant PI3 kinase δ, sequence (P27986 whole entry partner): as the sequence (P27986 whole entry partner) above
recombinant PI3 kinase γ, sequence (P48736 whole entry): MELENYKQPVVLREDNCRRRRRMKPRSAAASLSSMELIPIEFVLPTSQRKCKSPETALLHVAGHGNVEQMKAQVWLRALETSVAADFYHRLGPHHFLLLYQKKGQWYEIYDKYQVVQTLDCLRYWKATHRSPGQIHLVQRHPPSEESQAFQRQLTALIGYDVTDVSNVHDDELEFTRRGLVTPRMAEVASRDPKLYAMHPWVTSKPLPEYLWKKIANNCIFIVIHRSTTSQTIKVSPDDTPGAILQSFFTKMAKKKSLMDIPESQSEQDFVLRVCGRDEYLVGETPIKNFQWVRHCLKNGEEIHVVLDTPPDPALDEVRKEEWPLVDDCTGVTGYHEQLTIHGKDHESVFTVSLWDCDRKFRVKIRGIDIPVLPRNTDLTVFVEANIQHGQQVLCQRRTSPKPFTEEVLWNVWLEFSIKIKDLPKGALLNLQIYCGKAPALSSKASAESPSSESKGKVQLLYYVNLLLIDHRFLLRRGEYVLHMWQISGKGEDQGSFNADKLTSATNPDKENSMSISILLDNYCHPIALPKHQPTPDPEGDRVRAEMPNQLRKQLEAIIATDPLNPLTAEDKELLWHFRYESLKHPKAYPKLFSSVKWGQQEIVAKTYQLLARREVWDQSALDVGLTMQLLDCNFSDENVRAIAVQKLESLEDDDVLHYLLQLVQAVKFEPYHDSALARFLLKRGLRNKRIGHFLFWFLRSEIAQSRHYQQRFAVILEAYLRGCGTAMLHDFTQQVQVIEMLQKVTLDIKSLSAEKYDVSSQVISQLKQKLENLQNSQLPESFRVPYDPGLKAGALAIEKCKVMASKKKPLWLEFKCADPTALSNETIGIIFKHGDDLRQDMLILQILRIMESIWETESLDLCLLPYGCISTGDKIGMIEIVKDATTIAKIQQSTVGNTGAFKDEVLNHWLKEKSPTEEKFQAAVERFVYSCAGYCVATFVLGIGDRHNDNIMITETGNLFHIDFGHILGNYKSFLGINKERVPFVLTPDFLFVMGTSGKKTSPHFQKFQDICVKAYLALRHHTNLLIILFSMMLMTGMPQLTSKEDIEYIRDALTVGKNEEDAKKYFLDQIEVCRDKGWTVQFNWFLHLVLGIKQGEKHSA

| SMILES | IC50 [1, 6] [nM] | IC50 [2, 7] [nM] | IC50 [3, 8] [nM] | IC50 [4, 9] [nM] | IC50 ([1]; read-out: Cellular Activity IC50 values (H2O2 induced pAkt (nM) D-U937 Cells)) [nM] | IC50 ([2]; read-out: PI3 Kinase Inhibition IC50 values at stated Isozyme (nM) δ) [nM] | IC50 ([3]; read-out: PI3 Kinase Inhibition IC50 values at stated Isozyme (nM) γ) [nM] | IC50 ([4]; read-out: PI3 Kinase Inhibition IC50 values at stated Isozyme (nM) α) [nM] | Cell Viability MTT Assay in D-U937 cells at 4 hr [5] | Cell Viability MTT Assay in D-U937 cells at 24 hr [5] |
| --- | --- | --- | --- | --- | --- | --- | --- | --- | --- | --- |
| COCC#Cc1cccc2nc(Cn3nc(-c4ccc(O)cc4)c4c(N)ncnc43)n(Cc3cccc(OC)c3)c(=O)c12 [Example 27, 2-((4-Amino-3-(4-hydroxyphenyl)-1H-pyrazolo[3,4-d]pyrimidin-1-yl)methyl)-3-(3-methoxybenzyl)-5-(3-methoxyprop-1-ynyl)quinazolin-4(3H)-one] | < 10 | < 50 | 50 to 1000 | 50 to 1000 | – | – | – | – | − (− <30%) | − (− <30%) |
| COCC#Cc1cccc2nc(Cn3nc(-c4ccc(O)cc4)c4c(N)ncnc43)n(Cc3ccccc3Cl)c(=O)c12 [Example 28, 2-((4-Amino-3-(4-hydroxyphenyl)-1H-pyrazolo[3,4-d]pyrimidin-1-yl)methyl)-3-(2-chlorobenzyl)-5-(3-methoxyprop-1-ynyl)quinazolin-4(3H)-one] | < 10 | < 50 | 50 to 1000 | 50 to 1000 | – | – | – | – | − (− <30%) | − (− <30%) |
| C#Cc1cccc2nc(Cn3nc(-c4ccc(O)cc4)c4c(N)ncnc43)n(Cc3ccc(Cl)cc3F)c(=O)c12 [Example 35, 2-((4-Amino-3-(4-hydroxyphenyl)-1H-pyrazolo[3,4-d]pyrimidin-1-yl)methyl)-3-(4-chloro-2-fluorobenzyl)-5-ethynylquinazolin-4(3H)-one] | < 10 | < 50 | 50 to 1000 | 50 to 1000 | – | – | – | – | − (− <30%) | − (− <30%) |
| C#Cc1cccc2nc(Cn3nc(-c4ccc(O)c(F)c4)c4c(N)ncnc43)n(Cc3ccccc3Cl)c(=O)c12 [Example 36, 2-((4-Amino-3-(3-fluoro-4-hydroxyphenyl)-1H-pyrazolo[3,4-d]pyrimidin-1-yl)methyl)-3-(2-chlorobenzyl)-5-ethynylquinazolin-4(3H)-one] | < 10 | < 50 | > 1000 | 50 to 1000 | – | – | – | – | − (− <30%) | − (− <30%) |

Second part, led by results:

| IC50 [1, 6] [nM] | IC50 [2, 7] [nM] | IC50 [3, 8] [nM] | IC50 [4, 9] [nM] | IC50 ([1]; read-out: Cellular Activity IC50 values (H2O2 induced pAkt (nM) D-U937 Cells)) [nM] | IC50 ([2]; read-out: PI3 Kinase Inhibition IC50 values at stated Isozyme (nM) δ) [nM] | IC50 ([3]; read-out: PI3 Kinase Inhibition IC50 values at stated Isozyme (nM) γ) [nM] | IC50 ([4]; read-out: PI3 Kinase Inhibition IC50 values at stated Isozyme (nM) α) [nM] | SMILES | Cell Viability MTT Assay in D-U937 cells at 4 hr [5] | Cell Viability MTT Assay in D-U937 cells at 24 hr [5] |
| --- | --- | --- | --- | --- | --- | --- | --- | --- | --- | --- |
| < 10 | < 50 | 50 to 1000 | 50 to 1000 | – | – | – | – | COCC#Cc1cccc2nc(Cn3nc(-c4cccc(O)c4)c4c(N)ncnc43)n(Cc3ccc(Cl)cc3)c(=O)c12 [Example 26, 2-((4-Amino-3-(3-hydroxyphenyl)-1H-pyrazolo[3,4-d]pyrimidin-1-yl)methyl)-3-(4-chlorobenzyl)-5-(3-methoxyprop-1-ynyl)quinazolin-4(3H)-one] | − (− <30%) | − (− <30%) |
| < 10 | < 50 | 50 to 1000 | 50 to 1000 | – | – | – | – | C#Cc1cccc2nc(Cn3nc(-c4ccc(O)cc4)c4c(N)ncnc43)n(Cc3ccc(C(F)(F)F)cc3)c(=O)c12 [Example 29, 2-((4-Amino-3-(4-hydroxyphenyl)-1H-pyrazolo[3,4-d]pyrimidin-1-yl)methyl)-5-ethynyl-3-(4-(trifluoromethyl)benzyl)quinazolin-4(3H)-one] | − (− <30%) | − (− <30%) |
| < 10 | < 50 | > 1000 | 50 to 1000 | 0.33 | 12 | 1610 | 474 | COCC#Cc1cccc2nc(Cn3nc(-c4cccc(O)c4)c4c(N)ncnc43)n(Cc3cccc(C(F)(F)F)c3)c(=O)c12 [Example 37, 2-((4-Amino-3-(3-hydroxyphenyl)-1H-pyrazolo[3,4-d]pyrimidin-1-yl)methyl)-5-(3-methoxyprop-1-ynyl)-3-(3-(trifluoromethyl)benzyl)quinazolin-4(3H)-one] | − (− <30%) | − (− <30%) |

Reference: patent publication US9321773B2, “Compounds” (Respivert Ltd, priority 2009, dated 2016)
